Experimental findings from patent publication US12404345B2, “Humanized antibodies against iRHOM2” (SCIRHOM GMBH, priority 2021, dated 2025) are described below.

The subject of the assay is LPS-induced release of endogenous TNFα from human PBMCs from healthy donors. The assay can be described thus: ELISA-based TNFα release assay, LPS-induced, PBMCs from healthy donors. It is filed as cell-based. To be noted: PBMC, Batimastat 10 μM, LPS 0.01 ng/ml, 2 hours. The procedure: In the following study, ELISA-based TNF& release assays were performed to analyze the inhibitory effects of the antibodies of the invention on LPS-induced release of endogenous TNF& from primary human material obtained from healthy donors using peripheral blood mononuclear cells (PBMCs).
In brief, on day 1, Nunc black MaxiSorp® 96-well plates (Thermo Fisher Scientific, USA) were coated overnight with 100 μl per well of mouse anti-human TNFα capture antibody (provided as part of the DuoSet ELISA kit) at 4 μg/ml TBS at 4° C. On day 2, the capture antibody solution was removed and MaxiSorp® plates were blocked with 300 μl per well of TBS, 1% BSA at room temperature for 3 hours. […] Using an infinite M1000 (Tecan Group, Switzerland) microplate reader, the fluorescence of each well was collected at an excitation wavelength of 435 nm and an emission wavelength of 555 nm.

For the compound `CNC(=O)[C@H](Cc1ccccc1)NC(=O)[C@H](CC(C)C)[C@H](CSc1cccs1)C(=O)NO` [Batimastat], testing at 10 µM gave an inhibition of 98.9%.
